Converted amounts (≈) assume the structure as drawn. Like-named read-outs stand apart in the source and are kept apart here.
What was measured:
SARS-CoV-2 [1] = conditions: Gassen et al. (2020); read-out: IC50 against SARS-CoV-2; cited from earlier work
[2] = phosphate buffer, depending on temperature of measurement; cited from earlier work
[3] = system: prostate cancer cell (PC-3); assay: Inhibitory efficacy against prostate cancer cell PC-3; assay type: cell-based; conditions: estimated from dose-efficacy curve, FIG. 7
TMEM16F/Anoctamin6 = biological target: T1, TMEM16F/Anoctamin6 (Homo sapiens, UniProt Q4KMQ2); conditions: Spike-expressing cells; cited from earlier work
T1 sequence (Q4KMQ2 1-910): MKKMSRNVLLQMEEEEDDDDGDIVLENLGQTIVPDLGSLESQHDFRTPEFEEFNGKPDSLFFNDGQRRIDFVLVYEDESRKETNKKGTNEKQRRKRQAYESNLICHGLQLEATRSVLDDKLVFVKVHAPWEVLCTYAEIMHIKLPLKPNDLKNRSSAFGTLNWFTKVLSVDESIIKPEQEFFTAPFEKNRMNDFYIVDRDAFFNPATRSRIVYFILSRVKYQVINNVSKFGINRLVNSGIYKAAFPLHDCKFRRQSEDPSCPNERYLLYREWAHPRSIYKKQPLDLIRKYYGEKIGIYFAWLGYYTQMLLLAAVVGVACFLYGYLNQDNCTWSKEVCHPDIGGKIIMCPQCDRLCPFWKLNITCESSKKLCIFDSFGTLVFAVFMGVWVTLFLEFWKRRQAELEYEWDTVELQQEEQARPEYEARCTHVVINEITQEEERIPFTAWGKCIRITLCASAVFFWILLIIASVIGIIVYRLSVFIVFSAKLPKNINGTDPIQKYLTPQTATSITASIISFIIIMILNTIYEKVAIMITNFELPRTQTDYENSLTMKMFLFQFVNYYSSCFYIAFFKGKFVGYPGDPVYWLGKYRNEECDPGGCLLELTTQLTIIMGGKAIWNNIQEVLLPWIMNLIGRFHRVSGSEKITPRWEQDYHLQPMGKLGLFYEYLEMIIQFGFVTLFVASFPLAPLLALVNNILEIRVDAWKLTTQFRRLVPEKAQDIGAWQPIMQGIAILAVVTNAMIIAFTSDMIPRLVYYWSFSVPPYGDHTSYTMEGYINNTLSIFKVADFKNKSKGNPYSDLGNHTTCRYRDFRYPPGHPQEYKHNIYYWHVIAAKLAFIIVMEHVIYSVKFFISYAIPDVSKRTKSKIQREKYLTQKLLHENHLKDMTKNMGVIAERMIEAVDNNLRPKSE

[4] = cited from earlier work
[5] = Solubilization and dispersion of niclosamide by OHPP; conditions: 2.5 mg/mL niclosamide in phosphate buffer
[6] = cited from earlier work; remark: listed apart in the source
SARS-CoV-2 [7] = assay: microbe, parasite or virus in culture; assay type: cell-based; conditions: Severe acute respiratory syndrome coronavirus 2; Gassen et al. (2020); read-out: IC50 against SARS-CoV-2
[8] = rats, single oral dose 5 mg/kg, dissolved in DMSO/cremophor EL/water 3/15/82; cited from earlier work
SARS-CoV-2 [9] = assay: Anti-SARS-CoV-2 efficacy in Vero cells (Jeon et al. 2020); assay type: cell-based; conditions: Severe acute respiratory syndrome coronavirus 2, Vero; for IC90: read-out: IC90 against SARS-CoV-2

What does the source list for `O=C(Nc1ccc([N+](=O)[O-])cc1Cl)c1cc(Cl)ccc1O` [niclosamide, 2′,5-Dichloro-4′-nitrosalicylanilide]?
IC50 (SARS-CoV-2 [1]): 0.17 µM; solubility [2]: 0.3 to 1.14 µg/mL; IC50 [3]: 5.93 µg/mL (≈ 18.1 µM); effect on calcium oscillations and membrane conductances through TMEM16F (TMEM16F/Anoctamin6): markedly blunted calcium oscillations and membrane conductances; BCS solubility [4]: low solubility; solubility definition ([4]; delMoral-Sanchez et al., 2019): practically insoluble; appearance of dispersion [5]: did not dissolve and showed heavy clouds and precipitates; maximal plasma concentration ([6]; 500 mg TID): 35.7 to 182 ng/mL; side effects ([6]; 500 or 1000 mg TID oral, 4 weeks): mostly associated with the GI tract; maximal plasma concentration, highest level reached ([6]; 500 or 1000 mg TID, 4 weeks): 182 ng/mL; IC50 (SARS-CoV-2 [7]): 0.056 µg/mL (≈ 0.171 µM); highest plasma concentration (Cmax) [8]: 354 ± 152 ng/mL; IC90 (SARS-CoV-2 [9]; read from FIG. 2 (Jeon et al. 2020)): ~0.7 µM; IC50 (SARS-CoV-2 [9]; read-out: IC50 against SARS-CoV-2): 0.092 µg/mL (≈ 0.281 µM); IC90 (SARS-CoV-2 [9]): ~0.229 µg/mL
